Measurements reported in ChEMBL document CHEMBL1139185, “Methyl spongoate, a cytotoxic steroid from the Sanya soft coral Spongodes sp” (Bioorg Med Chem Lett, 2007).
Values after ≈ are worked out from the molar mass of the structure shown.

How the values were obtained:
Assay type in all cases: functional, cell-based
Bel-7402 = assay: Cytotoxicity against human BEL-7402 cells
A549 = assay: Cytotoxicity against human A549 cells
P388 = assay: Cytotoxicity against mouse P388 cells
HT-29 = assay: Cytotoxicity against human HT29 cells

`COC(=O)[C@H](CCCC(C)C)[C@H]1CC[C@H]2[C@@H]3CC[C@H]4CC(=O)C=C[C@]4(C)[C@H]3CC[C@]12C` [METHYL SPONGOATE] showed an IC50 (Bel-7402) of 0.14 µg/mL (≈ 0.327 µM), an IC50 (A549) of 5 µg/mL (≈ 11.7 µM) and an IC50 (P388) of 3.8 µg/mL (≈ 8.86 µM). It also gave an IC50 (HT-29) of 5 µg/mL (≈ 11.7 µM).
